Laboratory results as given in US20240368090A1, “SOLID STATE FORMS OF D[…] PROCESS FOR THEIR PREPARATION” (REDDY’S LABORATORIES LIMITED, priority 2023, published 2024).

Test: physical and chemical stability under standard stability conditions
Assay type: physicochemical
Method: In another aspect of the present disclosure, the crystalline form DP-9 of Daprodustat which is physically & chemically stable under standard stability conditions like 25° C.-60% RH, 40° C.-75% RH and 2-8° C. for at least 3 months.

Measured: physically & chemically stable for at least

O=C(O)CNC(=O)C1C(=O)N(C2CCCCC2)C(=O)N(C2CCCCC2)C1=O [Form DP-9]
at least 3 months: 2-8° C. | 25° C.-60% RH | 40° C.-75% RH
